# Experimental data from PubChem BioAssay (NCI).
#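 The compound was tested at five concentrations on cells cultured in 96-well plates, with a 48-hour exposure period. GI50 marks 50% less growth. Definition used: TGI = concentration required for complete inhibition of growth.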
# Experiments:
# Test in all cases: growth of human tumour cells (NCI), 48 h
# NCI-H460 lung = system: NCI-H460 lung
# SK-MEL-2 melanoma = system: SK-MEL-2 melanoma
# A549 NSCLC = system: A549 NSCLC
# RXF 393 renal = system: RXF 393 renal
# OVCAR-8 ovarian = system: OVCAR-8 ovarian
# MCF7 breast = system: MCF7 breast
# IGROV1 ovarian = system: IGROV1 ovarian
# NCI-H23 lung = system: NCI-H23 lung
# OVCAR-3 ovarian = system: OVCAR-3 ovarian
# LOX IMVI melanoma = system: LOX IMVI melanoma
# CCRF-CEM leukemia = system: CCRF-CEM leukemia
# HOP-62 NSCLC = system: HOP-62 NSCLC
# UACC-257 melanoma = system: UACC-257 melanoma
# MDA-MB-435 = system: MDA-MB-435
# OVCAR-5 ovarian = system: OVCAR-5 ovarian
# DU-145 prostate = system: DU-145 prostate
# SF-539 CNS = system: SF-539 CNS
# SF-268 CNS = system: SF-268 CNS
# 786-0 renal = system: 786-0 renal
# SK-MEL-28 melanoma = system: SK-MEL-28 melanoma
# HT29 colon = system: HT29 colon
# MDA-MB-231 breast = system: MDA-MB-231 breast
# TK-10 renal = system: TK-10 renal
# SW-620 colon = system: SW-620 colon
# NCI-H226 lung = system: NCI-H226 lung
# HOP-92 NSCLC = system: HOP-92 NSCLC
# T-47D breast = system: T-47D breast
# NCI/ADR-RES ovarian = system: NCI/ADR-RES ovarian
# HCC-2998 colon = system: HCC-2998 colon
# ACHN renal = system: ACHN renal
# SR leukemia = system: SR leukemia
# EKVX NSCLC = system: EKVX NSCLC
# KM12 colon = system: KM12 colon
# HL-60(TB) leukemia = system: HL-60(TB) leukemia
# UACC-62 melanoma = system: UACC-62 melanoma
# M14 melanoma = system: M14 melanoma
# SK-OV-3 ovarian = system: SK-OV-3 ovarian
# HCT-116 colon = system: HCT-116 colon
# SNB-19 CNS = system: SNB-19 CNS
# U251 CNS = system: U251 CNS
# SNB-75 CNS = system: SNB-75 CNS
# SN12C renal = system: SN12C renal
# BT-549 breast = system: BT-549 breast
# A498 renal = system: A498 renal
# RPMI-8226 leukemia = system: RPMI-8226 leukemia
# K-562 leukemia = system: K-562 leukemia
# SK-MEL-5 melanoma = system: SK-MEL-5 melanoma
# CAKI-1 renal = system: CAKI-1 renal
# HCT-15 colon = system: HCT-15 colon
# UO-31 renal = system: UO-31 renal
# COLO 205 colon = system: COLO 205 colon
# MOLT-4 leukemia = system: MOLT-4 leukemia
# SF-295 CNS = system: SF-295 CNS
# HS 578T breast = system: HS 578T breast
# NCI-H522 lung = system: NCI-H522 lung
# PC-3 prostate = system: PC-3 prostate
smiles,measurement,setting,value
O=c1cccc(C#CC#C[C@@H]2O[C@H]2CO)o1,GI50,NCI-H460 lung,2030 nM
same,TGI,NCI-H460 lung,4630 nM
same,GI50,SK-MEL-2 melanoma,2200 nM
same,GI50,A549 NSCLC,2250 nM
same,TGI,A549 NSCLC,4800 nM
same,GI50,RXF 393 renal,1770 nM
same,TGI,RXF 393 renal,3980 nM
same,GI50,OVCAR-8 ovarian,1030 nM
same,TGI,OVCAR-8 ovarian,3120 nM
same,GI50,MCF7 breast,525 nM
same,TGI,MCF7 breast,1360 nM
same,GI50,IGROV1 ovarian,183 nM
same,TGI,IGROV1 ovarian,339 nM
same,GI50,NCI-H23 lung,230 nM
same,TGI,NCI-H23 lung,450 nM
same,GI50,OVCAR-3 ovarian,2060 nM
same,TGI,OVCAR-3 ovarian,3690 nM
same,GI50,LOX IMVI melanoma,797 nM
same,TGI,LOX IMVI melanoma,1730 nM
same,GI50,CCRF-CEM leukemia,192 nM
same,GI50,HOP-62 NSCLC,1550 nM
same,TGI,HOP-62 NSCLC,3030 nM
same,GI50,UACC-257 melanoma,2170 nM
same,TGI,UACC-257 melanoma,4520 nM
same,GI50,MDA-MB-435,2120 nM
same,TGI,MDA-MB-435,4560 nM
same,GI50,OVCAR-5 ovarian,490 nM
same,TGI,OVCAR-5 ovarian,1880 nM
same,GI50,DU-145 prostate,2420 nM
same,TGI,DU-145 prostate,5970 nM
same,GI50,SF-539 CNS,1910 nM
same,TGI,SF-539 CNS,3680 nM
same,GI50,SF-268 CNS,1780 nM
same,TGI,SF-268 CNS,3910 nM
same,GI50,786-0 renal,626 nM
same,TGI,786-0 renal,1430 nM
same,GI50,SK-MEL-28 melanoma,270 nM
same,TGI,SK-MEL-28 melanoma,1360 nM
same,GI50,HT29 colon,429 nM
same,TGI,HT29 colon,2530 nM
same,GI50,MDA-MB-231 breast,233 nM
same,TGI,MDA-MB-231 breast,877 nM
same,GI50,TK-10 renal,1470 nM
same,TGI,TK-10 renal,3380 nM
same,GI50,SW-620 colon,746 nM
same,TGI,SW-620 colon,3770 nM
same,GI50,NCI-H226 lung,627 nM
same,TGI,NCI-H226 lung,1400 nM
same,GI50,HOP-92 NSCLC,1060 nM
same,TGI,HOP-92 NSCLC,3340 nM
same,GI50,T-47D breast,1330 nM
same,TGI,T-47D breast,3320 nM
same,GI50,NCI/ADR-RES ovarian,1240 nM
same,TGI,NCI/ADR-RES ovarian,4530 nM
same,GI50,HCC-2998 colon,217 nM
same,TGI,HCC-2998 colon,550 nM
same,GI50,ACHN renal,845 nM
same,TGI,ACHN renal,2080 nM
same,GI50,SR leukemia,621 nM
same,TGI,SR leukemia,> 100000 nM
same,GI50,EKVX NSCLC,1790 nM
same,TGI,EKVX NSCLC,3430 nM
same,GI50,KM12 colon,2060 nM
same,TGI,KM12 colon,7470 nM
same,GI50,HL-60(TB) leukemia,3120 nM
same,TGI,HL-60(TB) leukemia,> 100000 nM
same,GI50,UACC-62 melanoma,477 nM
same,TGI,UACC-62 melanoma,1100 nM
same,GI50,M14 melanoma,414 nM
same,GI50,SK-OV-3 ovarian,4050 nM
same,TGI,SK-OV-3 ovarian,12600 nM
same,GI50,HCT-116 colon,274 nM
same,GI50,SNB-19 CNS,3360 nM
same,TGI,SNB-19 CNS,12000 nM
same,GI50,U251 CNS,1460 nM
same,TGI,U251 CNS,3070 nM
same,GI50,SNB-75 CNS,434 nM
same,TGI,SNB-75 CNS,4070 nM
same,GI50,SN12C renal,465 nM
same,TGI,SN12C renal,915 nM
same,GI50,BT-549 breast,2000 nM
same,TGI,BT-549 breast,3730 nM
same,GI50,A498 renal,17700 nM
same,TGI,A498 renal,33300 nM
same,GI50,RPMI-8226 leukemia,1700 nM
same,TGI,RPMI-8226 leukemia,5490 nM
same,GI50,K-562 leukemia,1490 nM
same,TGI,K-562 leukemia,> 100000 nM
same,GI50,SK-MEL-5 melanoma,1870 nM
same,TGI,SK-MEL-5 melanoma,3900 nM
same,GI50,CAKI-1 renal,1100 nM
same,TGI,CAKI-1 renal,2710 nM
same,GI50,HCT-15 colon,1420 nM
same,TGI,HCT-15 colon,3140 nM
same,GI50,UO-31 renal,1060 nM
same,TGI,UO-31 renal,2880 nM
same,GI50,COLO 205 colon,201 nM
same,TGI,COLO 205 colon,388 nM
same,GI50,MOLT-4 leukemia,330 nM
same,TGI,MOLT-4 leukemia,> 100000 nM
same,GI50,SF-295 CNS,2640 nM
same,TGI,SF-295 CNS,9030 nM
same,GI50,HS 578T breast,5180 nM
same,TGI,HS 578T breast,24500 nM
same,GI50,NCI-H522 lung,814 nM
same,GI50,PC-3 prostate,1820 nM
same,TGI,PC-3 prostate,4100 nM
